Experimental data published in patent US10189796B2, “[4-(1,3,3-trimethyl-2-oxo-3,4-dihydro-1H-quinoxalin-7-yl)phenoxy]ethyloxy compound or salt thereof” (SANTEN PHARMACEUTICAL CO., LTD., priority 2015, dated 2019).

What was measured:
Recombinant human GR = Recombinant human GR (Homo sapiens (Human), UniProt P04150); test: GR competitive binding assay by fluorescence polarization; settings: 20 μM test compound solution, 10 μL/well; 2 hours; DEX positive control; read-out: GR binding rate (%)
Method: In order to evaluate a binding activity of the present compound to GR, a GR receptor competitor assay was carried out by a fluorescence polarization method. In the assay, a GR competitive binding assay kit (manufactured by Invitrogen, cat No. P2816) was used for the assay, and a procedure was carried out according to the protocol attached to the kit. Hereinafter, the specific method will be described.
GR screening buffer: A buffer containing 10 mM of potassium phosphate (pH 7.4), 20 mM of sodium molybdate (Na2MoO4), 0.1 mM of ethylene diamine tetraacetic acid (EDTA), 5 mM of dithiothreitol (DTT), 0.1 mM of stabilizing peptide and 2% of dimethylsulfoxide was prepared.
4×GS1 solution: Fluormone™ GS1, which is a fluorescent glucocorticoid ligand, was diluted with GR screening buffer, whereby a 4 nM solution was prepared.
4×GR solution: Recombinant human GR was diluted with GR screening buffer, whereby a 16 nM solution was prepared.
After a test compound was dissolved in dimethylsulfoxide, the resulting solution was diluted with GR screening buffer, whereby a 20 μM test compound solution was prepared. In addition, DEX was similarly dissolved, whereby a DEX solution with a […] concentration was prepared, and the solution was diluted with GR screening buffer, whereby a 2 mM DEX solution was prepared. DEX was used as positive control.
• 1) The test compound solution was added in an amount of 10 μL into each well of a 384-well plate. • 2) 4×GS1 solution and 4×GR solution were added in an amount of 5 μL into each well, respectively. • 3) GR screening buffer was added in an amount of 10 μL/well into each well in place of the test compound solution, which was made a negative control. • 4) A 2 mM of DEX was added in an amount of 10 μL/well into each well in place of the test compound solution, which was made a positive control. • 5) The plate was incubated in a dark place at room temperature for 2 hours, and fluorescence polarization of each well was measured. (Calculation Equation of GR Binding Ratio)
A GR binding ratio (%) was calculated from the following equation. GR binding ratio (%)=100×{1−(fluorescence polarization of test compound solution−average value of fluorescence polarization of positive control solution)/(average value of fluorescence polarization of negative control solution−average value of fluorescence polarization of positive control solution)}

[1] = system: TNFα production in rat whole blood; test: TNFα production inhibitory action evaluation test (LPS stimulation ex vivo, ELISA); type: cell-based; settings: 20 hours, 200 μM test compound solution 10 μL/well, DEX treated group = 100, read-out: TNFα production inhibitory ratio (% DEX)
Method: In order to evaluate an action of the present compound as a GR agonist, a TNFα production inhibitory action in rat whole blood after LPS stimulation ex vivo was investigated. For the measurement of the TNFα production amount, the ELISA method (manufactured by R&D Systems, Cat No. RTA00) was used, and a procedure was carried out according to the protocol attached thereto. Hereinafter, the specific method will be described.
LPS solution: LPS was dissolved in PBS(−) and diluted with RPMI 1640 to prepare an LPS solution with a concentration of 2 μg/mL.
After the test compound was dissolved in dimethylsulfoxide, the solution was diluted with PBS(−) to prepare 200 μM of a test compound solution. In addition, DEX was similarly dissolved to prepare 200 μM of a DEX solution, and a TNFα production inhibitory ratio of DEX was measured, and used for calculation of Efficacy (% DEX).
• 1) Blood was collected from 3 to 5 rats using an injection syringe treated with heparin from the abdominal aorta under isoflurane anesthesia. The rats confirmed death after lething the whole blood. • 2) The blood of 3 to 5 rats pooled in a 96-well round bottom culture plate was seeded at each 180 μL/well. • 3) It was cultured (37° C., 5% CO2, 95% air) for about 1 hour. • 4) The test compound solution was added each 10 μL/well, and cultured for 1 hour. • 5) LPS solution was added each 10 μL/well. • 6) The sample in which 2% dimethylsulfoxide-containing PBS(−) was added with each 10 μL/well in place of each test compound solution, and RPMI 1640 was added with each 10 μL/well in place of the LPS solution was made a negative control. • 7) The sample in which 2% dimethylsulfoxide-containing PBS(−) was added with each 10 μL/well in place of each test compound solution was made a positive control. • 8) After completion of 20 hours cultivation, the supernatant was recovered and the amount of TNFα released in the supernatant was measured by using an ELISA Kit. • 9) The TNFα production inhibitory ratio was calculated according to the following calculation formula. (Calculation of TNFα Production Inhibitory Ratio)
TNFα production inhibitory ratio (%) was calculated according to the following formula. TNFα production inhibitory ratio (%)=100×{1−(TNFα production amount of each test compound solution−average value of TNFα production amount of negative control group)/(average value of TNFα production amount of positive control group−average value of TNFα production amount of negative control group)}(%)
Further, a TNFα production inhibitory ratio (Efficacy (% DEX)) when the DEX treated group was made 100 was calculated. Efficacy (% DEX)=100×{(average value of TNFα production inhibitory ratio of each test compound solution)/(average value of TNFα production inhibitory ratio of DEX treated group)}(%)

Recombinant human GR, sequence (P04150 whole entry): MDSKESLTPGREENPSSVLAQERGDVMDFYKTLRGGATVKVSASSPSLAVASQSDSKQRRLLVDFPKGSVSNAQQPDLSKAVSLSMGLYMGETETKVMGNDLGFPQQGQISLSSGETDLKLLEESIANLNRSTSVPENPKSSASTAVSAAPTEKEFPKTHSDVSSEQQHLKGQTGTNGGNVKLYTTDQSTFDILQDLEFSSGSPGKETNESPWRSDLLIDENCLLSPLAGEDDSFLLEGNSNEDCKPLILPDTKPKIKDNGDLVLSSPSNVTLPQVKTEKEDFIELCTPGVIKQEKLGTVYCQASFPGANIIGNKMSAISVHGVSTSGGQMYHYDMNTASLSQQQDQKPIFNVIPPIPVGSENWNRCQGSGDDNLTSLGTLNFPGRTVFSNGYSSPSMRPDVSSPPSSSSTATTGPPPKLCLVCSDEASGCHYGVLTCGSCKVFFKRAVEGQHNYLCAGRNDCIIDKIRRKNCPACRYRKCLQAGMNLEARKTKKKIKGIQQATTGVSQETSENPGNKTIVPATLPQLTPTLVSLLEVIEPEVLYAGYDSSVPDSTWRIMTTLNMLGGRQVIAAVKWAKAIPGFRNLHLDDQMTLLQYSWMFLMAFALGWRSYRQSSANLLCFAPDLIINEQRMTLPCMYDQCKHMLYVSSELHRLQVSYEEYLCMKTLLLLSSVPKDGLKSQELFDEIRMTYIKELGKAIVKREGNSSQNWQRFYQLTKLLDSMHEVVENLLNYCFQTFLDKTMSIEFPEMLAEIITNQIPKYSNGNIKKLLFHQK

| SMILES | inhibition at 10 µM (Recombinant human GR) [%] | Emax [1] [%] |
| --- | --- | --- |
| COc1cc(OC[C@@H](C)O)ccc1-c1ccc2c(c1COc1cc(F)ccc1C)N(C)C(=O)C(C)(C)N2 [Compound 1-3, (R)-8-(5-fluoro-2-methylphenoxymethyl)-7-[4-(2-hydroxypropyl)oxy-2-methoxy-phenyl]-1,3,3-trimethyl-3,4-dihydro-1H-quinoxalin-2-one] | 95 | 93 |
| COc1cc(OCC(O)C(F)(F)F)ccc1-c1ccc2c(c1COc1cc(F)ccc1C)N(C)C(=O)C(C)(C)N2 (stereo not shown) [Compound 1-2, 8-(5-Fluoro-2-methylphenoxymethyl)-7-[4-(2-hydroxy-3,3,3-trifluoro-propyl)oxy-2-methoxyphenyl]-1,3,3-trimethyl-3,4-dihydro-1H-quinoxalin-2-one] |  | 94 |
| COc1cc(OC[C@H](O)CCO)ccc1-c1ccc2c(c1COc1cc(F)ccc1C)N(C)C(=O)C(C)(C)N2 [Compound 2-2, (R)-7-[4-(2,4-dihydroxybutyl)oxy-2-methoxyphenyl]-8-(5-fluoro-2-methyl-phenoxymethyl)-1,3,3-trimethyl-3,4-dihydro-1H-quinoxalin-2-one] | 91 | 95 |
| COc1cc(OCC(O)CC(=O)N2CCOCC2)ccc1-c1ccc2c(c1COc1cc(F)ccc1C)N(C)C(=O)C(C)(C)N2 (stereo not shown) [Compound 10-2, 8-(5-fluoro-2-methylphenoxymethyl)-7-[4-[3-(N-morpholino)carbonyl-2-hydroxypropyl]oxy-2-methoxyphenyl]-1,3,3-trimethyl-3,4-dihydro-1H-quinoxalin-2-one] | > 99 | > 99 |
